# Reference: ChEMBL document CHEMBL4811250, “Discovery and Optimization of 2H-1λ2-Pyridin-2-one Inhibitors of Mutant Isocitrate Dehydrogenase 1 for the Treatment of Cancer” (J Med Chem, 2021)
# Key:
# [1] = system: Isocitrate dehydrogenase [NADP] cytoplasmic (Homo sapiens), O75874 [R132H]; assay: Inhibition of IDH1 R132H mutant (unknown origin) assessed as reduction in NADPH consumption using alpha-KG as substrate at 38 uM incubated for 5 mins by diaphorase/resazurin-coupled system relative to control
# Isocitrate dehydrogenase [NADP] cytoplasmic (Homo sapiens), O75874 [R132H], sequence (O75874 whole entry R132H): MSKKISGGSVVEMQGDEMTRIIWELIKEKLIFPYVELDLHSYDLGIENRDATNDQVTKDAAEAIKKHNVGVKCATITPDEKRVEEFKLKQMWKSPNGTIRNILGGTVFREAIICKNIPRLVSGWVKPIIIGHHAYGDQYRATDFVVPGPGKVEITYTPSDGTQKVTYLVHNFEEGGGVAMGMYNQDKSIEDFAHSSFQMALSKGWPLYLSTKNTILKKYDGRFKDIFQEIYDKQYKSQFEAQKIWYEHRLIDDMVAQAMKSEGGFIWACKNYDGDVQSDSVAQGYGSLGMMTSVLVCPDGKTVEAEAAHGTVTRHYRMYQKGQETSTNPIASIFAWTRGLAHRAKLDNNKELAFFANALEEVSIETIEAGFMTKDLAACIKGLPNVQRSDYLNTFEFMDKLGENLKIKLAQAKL
# [2] = target: Isocitrate dehydrogenase [NADP] cytoplasmic (Homo sapiens, UniProt O75874, R132H); assay: Inhibition of IDH1 R132H mutant (unknown origin) assessed as reduction in NADPH consumption using alpha-KG as substrate incubated for 5 mins by diaphorase/resazurin-coupled system
# Isocitrate dehydrogenase [NADP] cytoplasmic (Homo sapiens, UniProt O75874, R132H), sequence (O75874 2-414 R132H limits assumed): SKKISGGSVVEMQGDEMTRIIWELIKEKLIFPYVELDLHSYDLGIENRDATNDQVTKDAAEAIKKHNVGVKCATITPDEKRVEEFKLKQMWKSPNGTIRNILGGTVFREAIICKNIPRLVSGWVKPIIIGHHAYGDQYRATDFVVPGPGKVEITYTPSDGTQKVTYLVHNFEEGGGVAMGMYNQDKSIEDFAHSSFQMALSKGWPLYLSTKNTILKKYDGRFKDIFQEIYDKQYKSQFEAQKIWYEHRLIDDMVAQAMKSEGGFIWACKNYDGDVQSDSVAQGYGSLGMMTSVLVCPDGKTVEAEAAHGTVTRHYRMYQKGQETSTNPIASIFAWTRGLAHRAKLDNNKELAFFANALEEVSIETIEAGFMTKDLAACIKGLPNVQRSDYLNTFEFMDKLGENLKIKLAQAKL
# [3] = system: Isocitrate dehydrogenase [NADP] cytoplasmic (Homo sapiens), O75874 [R132C]; assay: Inhibition of IDH1 R132C mutant (unknown origin) assessed as reduction in NADPH consumption using alpha-KG as substrate at 38 uM incubated for 5 mins by diaphorase/resazurin-coupled system relative to control
# Isocitrate dehydrogenase [NADP] cytoplasmic (Homo sapiens), O75874 [R132C], sequence (O75874 whole entry R132C): as the sequence (O75874 whole entry R132H) above, with H132C counted along it
# [4] = target: Isocitrate dehydrogenase [NADP] cytoplasmic (Homo sapiens, UniProt O75874, R132C); assay: Inhibition of IDH1 R132C mutant (unknown origin) assessed as reduction in NADPH consumption using alpha-KG as substrate incubated for 5 mins by diaphorase/resazurin-coupled system
# Isocitrate dehydrogenase [NADP] cytoplasmic (Homo sapiens, UniProt O75874, R132C), sequence (O75874 2-414 R132C limits assumed): as the sequence (O75874 2-414 R132H limits assumed) above, with H131C counted along it
Compound,inhibition [1] [%],IC50 [2] [nM],inhibition [3] [%],IC50 [4] [nM]
COc1cccc(OC)c1-n1c2c(cc(-c3nc(-c4ccc(Cl)cc4)cs3)c1=O)C(=O)CC(C)(C)C2,87,2400,75,1600
CCc1cccc(CC)c1-n1c(C)c(C(=O)NCC(C)C)cc(-c2nc(-c3ccc(Cl)cc3)cs2)c1=O,,> 38000,56,810
CCOc1cccc(OCC)c1-n1c2c(cc(-c3nc(-c4ccc(Cl)cc4)cs3)c1=O)C(=O)CC(C)(C)C2,76,390,86,160
COc1ccc(OC)c(-n2c3c(cc(-c4nc(-c5ccc(Cl)cc5)cs4)c2=O)C=CC(C)(C)C3)c1,96,3000,76,1700
CCc1cccc(CC)c1-n1c(C)c(C(=O)NCC(N)=O)cc(-c2nc(-c3ccc(Cl)cc3)cs2)c1=O,105,1600,77,3800
COc1cccc(C(=O)O)c1-n1c2c(cc(-c3nc(-c4ccc(Cl)cc4)cs3)c1=O)C(=O)CC(C)(C)C2,102,910,108,2000
COc1ccncc1-n1c2c(cc(-c3nc(-c4ccc(Cl)cc4)cs3)c1=O)C(=O)CC(C)(C)C2,,> 38000,,> 38000
CCc1cccc(C)c1-n1c2c(cc(-c3nc(-c4ccc(Cl)cc4)cs3)c1=O)C(=O)CC(C)(C)C2,89,790,86,500
COc1ccc(OC)c(-n2c3c(cc(-c4nc(-c5ccc(Cl)cc5)c[nH]4)c2=O)C(=O)CC(C)(C)C3)c1,82,2200,77,2500
COc1ccc(C(=O)O)cc1-n1c2c(cc(-c3nc(-c4ccc(Cl)cc4)cs3)c1=O)C(=O)CC(C)(C)C2,108,12000,86,14000
CCc1cccc(CC)c1-n1c(C)c(C(=O)NCCNC)cc(-c2nc(-c3ccc(Cl)cc3)cs2)c1=O,101,870,96,320
CCc1cccc(CC)c1-n1c(C=C(C)C)c(C(=O)N2CCNC(CO)C2)cc(-c2nc(-c3ccc(Cl)cc3)cs2)c1=O (centres undefined),,49,,60
COc1ccc(OC)c(-n2c3c(cc(-c4cn(-c5ccc(Cl)cc5)cn4)c2=O)C(=O)CC(C)(C)C3)c1,41,,,> 38000
CC1(C)CC(=O)c2cc(-c3nc(-c4ccc(Cl)cc4)cs3)c(=O)n(C3CCCCC3)c2C1,,> 38000,,> 38000
CCc1ccc(C)cc1-n1c(C=C(C)C)c(C(=O)N2CCNCC2)cc(-c2nc(-c3ccc(Cl)cc3)cs2)c1=O,,44,,110
CCc1cccc(CC)c1-n1c(C)c(C(=O)N2CCN(C)CC2)cc(-c2nc(-c3ccc(Cl)cc3)cs2)c1=O,88,2900,86,1200
CCc1cccc(CC)c1-n1c(C)c(C(=O)N(C)C)cc(-c2nc(-c3ccc(Cl)cc3)cs2)c1=O,98,1200,86,2000
CCc1cccc(CC)c1-n1c(C)c(C(=O)OC)cc(-c2nc(-c3ccc(Cl)cc3)cs2)c1=O,,> 38000,,> 38000
CCCC1CN(C(=O)c2cc(-c3nc(-c4ccc(Cl)cc4)cs3)c(=O)n(-c3c(CC)cccc3CC)c2C=C(C)C)CCN1 (centres undefined),,130,,82
CCc1cccc(CC)c1-n1c(C)c(C(=O)NCCCNC)cc(-c2nc(-c3ccc(Cl)cc3)cs2)c1=O,104,1000,95,910
CCc1cccc(CC)c1-n1c2c(cc(-c3nc(-c4ccc(Cl)cc4)cs3)c1=O)C(=O)CC(C)(C)C2,89,690,82,240
CCc1cccc(CC)c1-n1c(C=C(C)C)c(C(=O)N2CCNC(C(N)=O)C2)cc(-c2nc(-c3ccc(Cl)cc3)cs2)c1=O (centres undefined),,94,,42
CCc1ccccc1-n1c2c(cc(-c3nc(-c4ccc(Cl)cc4)cs3)c1=O)C(=O)CC(C)(C)C2,91,2000,83,870
CCc1cccc(CC)c1-n1c(C)c(C(=O)NCCO)cc(-c2nc(-c3ccc(Cl)cc3)cs2)c1=O,104,420,96,2000
CCc1cccc(CC)c1-n1c(CC2CCOC2)c(C(=O)N2CCNCC2)cc(-c2nc(-c3ccc(Cl)cc3)cs2)c1=O (centres undefined),105,75,91,130
CCc1cccc(Cl)c1-n1c(C=C(C)C)c(C(=O)N2CCNCC2)cc(-c2nc(-c3ccc(Cl)cc3)cs2)c1=O,,44,,55

Compound,inhibition [1] [%],IC50 [2] [nM],inhibition [3] [%],IC50 [4] [nM]
CCc1cccc(C)c1-n1c(C=C(C)C)c(C(=O)N2CCNCC2)cc(-c2nc(-c3ccc(Cl)cc3)cs2)c1=O,,270,,2200
CC(C)=Cc1c(C(=O)N2CCNCC2)cc(-c2nc(-c3ccc(Cl)cc3)cs2)c(=O)n1-c1ccccc1,,330,,3200
CCOc1ccc(OCC)c(-n2c3c(cc(-c4nc(-c5ccc(Cl)cc5)cs4)c2=O)C(=O)CC(C)(C)C3)c1,85,160,75,64
CCc1cccc(CC)c1-n1c(C)c(C(=O)NCC(=O)O)cc(-c2nc(-c3ccc(Cl)cc3)cs2)c1=O,106,1200,87,11000
COc1ccc(OC)c(-n2c3c(cc(-c4nc5cc(Cl)ccc5s4)c2=O)C(=O)CC(C)(C)C3)c1,,> 38000,,> 38000
CCc1cccc(CC)c1-n1c(C=C(C)C)c(C(=O)N2CC3(CNC3)C2)cc(-c2nc(-c3ccc(Cl)cc3)cs2)c1=O,,240,,64
CCc1cccc(CC)c1-n1c(C)c(C(=O)N2CCNCC2)cc(-c2nc(-c3ccc(Cl)cc3)cs2)c1=O,103,210,93,1500
COC(=O)c1ccsc1-n1c2c(cc(-c3nc(-c4ccc(Cl)cc4)cs3)c1=O)C(=O)CC(C)(C)C2,94,470,83,470
CC1(C)CC(=O)c2cc(-c3nc(-c4ccc(Cl)cc4)cs3)c(=O)n(-c3ccccc3C(=O)O)c2C1,96,4600,105,11000
CC1(C)CC(=O)c2cc(-c3nc(-c4ccc(Cl)cc4)cs3)c(=O)n(-c3ccccc3OC(F)(F)F)c2C1,98,570,78,280
CCOc1ccccc1-n1c2c(cc(-c3nc(-c4ccc(Cl)cc4)cs3)c1=O)C(=O)CC(C)(C)C2,88,,81,410
CCc1ccccc1-n1c(C=C(C)C)c(C(=O)N2CCNCC2)cc(-c2nc(-c3ccc(Cl)cc3)cs2)c1=O,,56,,160
COc1ccc(OC)c(-n2cccc(-c3nc(-c4ccc(Cl)cc4)cs3)c2=O)c1,,> 38000,,> 38000
COc1ncccc1-n1c2c(cc(-c3nc(-c4ccc(Cl)cc4)cs3)c1=O)C(=O)CC(C)(C)C2,97,1000,80,1300
COc1ccc(OC)c(-n2c3c(cc(-c4nc5ccc(Cl)cc5s4)c2=O)C(=O)CC(C)(C)C3)c1,50,,94,2500
CCc1cccc(CC)c1-n1c(C)c(C(=O)NCCOC)cc(-c2nc(-c3ccc(Cl)cc3)cs2)c1=O,92,2100,102,730
CCc1cccc(CC)c1-n1c(C=C(C)C)c(C(=O)N2CCNC(CC)C2)cc(-c2nc(-c3ccc(Cl)cc3)cs2)c1=O (centres undefined),,100,,72
CCc1cccc(CC)c1-n1c(C(C)C)c(C(=O)N2CCNCC2)cc(-c2nc(-c3ccc(Cl)cc3)cs2)c1=O,102,420,92,390
COc1ccc(OC)c(-n2c(C)ccc(-c3nc(-c4ccc(Cl)cc4)cs3)c2=O)c1,,> 38000,,> 38000
COc1ccc(OC)c(-n2c3c(cc(-c4ccc(-c5ccccc5)cc4)c2=O)C(=O)CC(C)(C)C3)c1,,> 38000,,> 38000
CC(C)Oc1ccccc1-n1c2c(cc(-c3nc(-c4ccc(Cl)cc4)cs3)c1=O)C(=O)CC(C)(C)C2,80,1100,77,470
COc1ccc(OC)c(-n2c3c(cc(-n4cc(-c5ccccc5)cn4)c2=O)C(=O)CC(C)(C)C3)c1,31,,,> 38000
COc1ccc(OC)c(-n2c3c(cc(C(=O)NCc4ccc(Cl)cc4)c2=O)C(=O)CC(C)(C)C3)c1,35,,,> 38000
CCOC(=O)c1cc(-c2nc(-c3ccc(Cl)cc3)cs2)c(=O)n(-c2c(CC)cccc2CC)c1-c1ccccc1,,> 38000,,> 38000
CCc1cccc(CC)c1-n1c(C=C(C)C)c(C(=O)N2CCNC(C(F)(F)F)C2)cc(-c2nc(-c3ccc(Cl)cc3)cs2)c1=O (centres undefined),,360,,130
COc1ccc(-n2c3c(cc(-c4nc(-c5ccc(Cl)cc5)cs4)c2=O)C(=O)CC(C)(C)C3)c(OC)c1,,> 38000,,> 38000
